Assay results as given in ChEMBL document CHEMBL1132411, “Bis- and mixed-tetrahydroisoquinolinium chlorofumarates: new ultra-short-acting nondepolarizing neuromuscular blockers” (1999).

How the values were obtained:
Assay type in all cases: functional, Cercopithecidae
Monkey [1] = assay: Compound was evaluated for the dose producing 95% suppression of the twitch response in male Rhesus Monkey.
Monkey [2] = assay: Compound was evaluated for the time from injection to recovery of the twitch to 95% of baseline at the ED95 dose
Monkey [3] = assay: Compound was evaluated for the time from injection to peak inhibition of the twitch response at the ED95 dose
Monkey [4] = assay: Compound was evaluated for the time from injection to recovery of the twitch to 95% of baseline at 0.4 mg/kg dose
Monkey [5] = assay: Compound was evaluated for the time from injection to peak inhibition of the twitch response at 0.4 mg/kg dose
Monkey [6] = assay: Compound was evaluated for the time from injection to peak inhibition of the twitch response at 0.2 mg/kg dose
Monkey [7] = assay: Compound was evaluated for the time from injection to recovery of the twitch to 95% of baseline at 0.2 mg/kg dose
[8] = Cercopithecidae, in Macaca mulatta, read-out: ED95

Structure (SMILES) | ED95 (Monkey [1]; [8]) [mg/kg] | Duration (Monkey [2]) [min] | Onset (Monkey [3]) [s] | other results
COc1cc2c(cc1OC)[C@H](c1cc(OC)c(OC)c(OC)c1)[N@@+](C)(CCCOC(=O)/C=C(\Cl)C(=O)OCCC[N@@+]1(C)CCc3cc(OC)c(OC)cc3[C@@H]1c1cc(OC)c(OC)c(OC)c1)CC2.[Cl-].[Cl-] | 8.5 | 11.2 | 55 | 
COc1cc2c(cc1OC)[C@@H](c1cc(OC)c(OC)c(OC)c1)[N@+](C)(CCCOC(=O)/C(Cl)=C/C(=O)OCCC[N@+]1(C)CCc3cc(OC)c(OC)cc3[C@H]1Cc1cc(OC)c(OC)c(OC)c1)CC2.[Cl-].[Cl-] | 0.31 | 3.7 | 37 | 
COc1cc2c(cc1OC)[C@@H](Cc1cc(OC)c(OC)c(OC)c1)[N@+](C)(CCCOC(=O)/C=C(\Cl)C(=O)OCCC[N@+]1(C)CCc3cc(OC)c(OC)cc3[C@H]1Cc1cc(OC)c(OC)c(OC)c1)CC2.[Cl-].[Cl-] | 0.109 | 8.7 | 73 | Duration (Monkey [4]): 13.4 min; Onset (Monkey [5]): 23 s; Onset (Monkey [6]): 36 s; Duration (Monkey [7]): 9.78 min
C[N+](C)(C)CCOC(=O)CCC(=O)OCC[N+](C)(C)C.[Cl-].[Cl-] [SUCCINYLCHOLINE CHLORIDE] | 1.29 | 5 | 50 | 
COc1cc2c(cc1OC)[C@@H](Cc1cc(OC)c(OC)c(OC)c1)[N+](C)(CCCOC(=O)CC/C=C/CCC(=O)OCCC[N+]1(C)CCc3cc(OC)c(OC)cc3[C@H]1Cc1cc(OC)c(OC)c(OC)c1)CC2.[Cl-].[Cl-] (stereo partly specified) [MIVACURIUM CHLORIDE] | 0.062 | 12 | 107 | 
COc1cc2c(cc1OC)[C@H](c1cc(OC)c(OC)c(OC)c1)[N@@+](C)(CCCOC(=O)/C=C(\Cl)C(=O)OCCC[N@+]1(C)CCc3cc(OC)c(OC)cc3[C@H]1Cc1cc(OC)c(OC)c(OC)c1)CC2.[Cl-].[Cl-] (stereo in doubt; 6a) [GANTACURIUM CHLORIDE] |  |  | 88 | Duration (Monkey [4]; 0.4 mg/kg): 10 min; Onset (Monkey [5]; 0.4 mg/kg): 25 s; Onset (Monkey [6]; 0.2 mg/kg): 38 s; Duration (Monkey [7]; 0.2 mg/kg): 8.46 min; ED95 (Monkey [1]): 0.063 mg/kg
COc1cc2c(cc1OC)[C@@H](c1cc(OC)c(OC)c(OC)c1)[N@+](C)(CCCOC(=O)/C=C(\Cl)C(=O)OCCC[N@+]1(C)CCc3cc(OC)c(OC)cc3[C@H]1c1cc(OC)c(OC)c(OC)c1)CC2.[Cl-].[Cl-] | 1.79 | 5.1 | 46 | 
COc1cc2c(cc1OC)[C@H](c1cc(OC)c(OC)c(OC)c1)[N@@+](C)(CCCOC(=O)/C(Cl)=C/C(=O)OCCC[N@+]1(C)CCc3cc(OC)c(OC)cc3[C@H]1Cc1cc(OC)c(OC)c(OC)c1)CC2.[Cl-].[Cl-] | 0.25 | 3.4 | 52 | 
COc1cc2c(cc1OC)[C@H](c1cc(OC)c(OC)c(OC)c1)[N@@+](C)(CCCOC(=O)/C=C(\Cl)C(=O)OCCC[N@+]1(C)CCc3cc(OC)c(OC)cc3[C@H]1Cc1cc(OC)c(OC)c(OC)c1)CC2.[Cl-].[Cl-] (stereo in doubt; 6ab) [GANTACURIUM CHLORIDE] |  | 5.6 | 51 | Duration (Monkey [4]; 0.4 mg/kg): 8.7 min; Onset (Monkey [5]; 0.4 mg/kg): 27 s; Onset (Monkey [6]; 0.2 mg/kg): 44 s; Duration (Monkey [7]; 0.2 mg/kg): 7.1 min; ED95 (Monkey [1]): 0.163 mg/kg
COc1cc2c(cc1OC)[C@@H](c1cc(OC)c(OC)c(OC)c1)[N@+](C)(CCCOC(=O)/C=C/C(=O)OCCC[N@+]1(C)CCc3cc(OC)c(OC)cc3[C@H]1c1cc(OC)c(OC)c(OC)c1)CC2.[Cl-].[Cl-] | 1.55 | 25.5 | 144 | 
